# Biological target: T1, thrombin receptor (Homo sapiens, UniProt P25116)
# T1 construct: tissue North Jersey Blood Center (East Orange, N.J.); host or cells: platelet membranes prepared from platelet concentrates
# T1 sequence (P25116 22-425): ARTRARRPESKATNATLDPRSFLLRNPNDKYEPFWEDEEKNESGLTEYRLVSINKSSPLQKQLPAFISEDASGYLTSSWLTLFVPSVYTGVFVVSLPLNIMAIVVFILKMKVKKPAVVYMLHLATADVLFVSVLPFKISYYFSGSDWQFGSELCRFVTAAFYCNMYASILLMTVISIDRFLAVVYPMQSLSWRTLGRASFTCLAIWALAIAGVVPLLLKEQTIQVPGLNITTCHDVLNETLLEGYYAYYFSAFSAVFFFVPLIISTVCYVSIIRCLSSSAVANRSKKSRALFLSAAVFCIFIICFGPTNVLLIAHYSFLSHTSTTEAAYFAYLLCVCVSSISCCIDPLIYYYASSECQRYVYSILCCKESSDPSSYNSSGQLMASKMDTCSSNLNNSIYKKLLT
# Assay: High throughput thrombin receptor radioligand binding assay ([3H]haTRAP, platelet membranes)
# Procedure: In Vitro Testing Procedure for Thrombin Receptor Antagonists:
# Preparation of [^3H]ha TRAP
# A(pF-F)R(ChA)(hR)(I2—Y)—NH2 (1.03 mg) and 10% Pd/C (5.07 mg) were suspended in DMF (250 μl) and diisopropylethylamine (10 μl). The vessel was attached to the tritium line, frozen in liquid nitrogen and evacuated. Tritium gas (342 mCi) was then added to the flask, which was stirred at room temperature for 2 hours. At the completion of the reaction, the excess tritium was removed and the reacted peptide solution was diluted with DMF (0.5 ml) and filtered to remove the catalyst. The collected DMF solution of the crude peptide was diluted with water and freeze dried to remove the labile tritium. The solid peptide was redissolved in water and the freeze drying process repeated. The tritiated peptide ([^3H]haTRAP) was dissolved in 0.5 ml of 0.1% aqueous TFA and purified by HPLC using the following conditions: column, Vydac™ C18, 25 cm×9.4 mm I.D.; mobile phase, (A) 0.1% TFA in water, (B) 0.1% TFA in CH3CN; gradient, (A/B) from 100/0 to 40/60 over 30 min; flow rate, 5 ml/min; detection, UV at 215 nm. The radiochemical purity of [^3H]haTRAP was 99% as analyzed by HPLC. A batch of 14.9 mCi at a specific activity of 18.4 Ci/mmol was obtained.
# Preparation of Platelet Membranes
# Platelet membranes were prepared using a modification of the method of Natarajan et al. (Natarajan et al, Int. J. Peptide Protein Res. 45:145-151 (1995)) from 20 units of platelet concentrates obtained from the North Jersey Blood Center (East Orange, N.J.) within 48 hours of collection. All steps were carried out at 4° C. under approved biohazard safety conditions. Platelets were centrifuged at 100×g for 20 minutes at 4° C. to remove red cells. The supernatants were decanted and centrifuged at 3000×g for 15 minutes to pellet platelets. Platelets were re-suspended in 10 mM Tris-HCl, pH 7.5, 150 mM NaCl, 5 mM EDTA, to a total volume of 200 ml and centrifuged at 4400×g for 10 minutes. This step was repeated two additional times. […] Protein concentration was determined by a Lowry assay (Lowry et al., J. Biol. Chem., 193:265-275 (1951)). […]
smiles,measurement,setting,value
"O=C1OC[C@@H]2C(/C=C/c3ccc(-c4cccc(F)c4)cn3)c3ccccc3CN12 (single isomer, unassigned) [Compound 12, 10-{2-[5-(3-Fluoro-phenyl)-pyridin-2-yl]-vinyl}-1,5,10,10a-tetrahydro-oxazolo[3,4-b]isoquinolin-3-one]",inhibition at 1 µM,"at 1 μM, read-out: Thrombin Receptor Antagonist Activity: % inhibition",27%
"O=C1OC[C@@H]2C(/C=C/c3ccc(-c4cccc(F)c4)cn3)c3ccccc3CN12 (single isomer, unassigned) [Compound 13, 10-{2-[5-(3-Fluoro-phenyl)-pyridin-2-yl]-vinyl}-1,5,10,10a-tetrahydro-oxazolo[3,4-b]isoquinolin-3-one]",Thrombin Receptor Antagonist Activity: % inhibition,at 1 μM,15%
O=C1OC[C@@H]2C(/C=C/c3ccc(-c4cccc(F)c4)cn3)C3CCCCC3CN12 (stereo partly drawn) [Compound 16],Ki,,12 nM
